The test deals with T98G glioblastoma cells. Nature of the test: Apoptosis assay by sub-G0/G1 fraction estimation (apoptotic nuclear fragmentation, PI staining, FACS). The test is classed as cell-based, human. Particulars: for Potentiation % (apoptotic nuclear fragmentation): T98G transfected with PME-1 specific dsRNA; for level of apoptosis in PME-1 depleted cells: PME-1 siRNA 48 hrs, then drug 24 hrs. Here is the method: The percentage of the sub-G0/G1 fraction containing fragmented nuclei stained with Propidium iodide (P1) was taken as a measure of apoptotic cells. 3.5-4×10^4 cells were plated in 24-well plates, transfected with siRNA for 48 hrs, and then treated with indicated concentration of test compounds in fresh media. After 24 hrs of treatment, both floating and adherent cells were harvested by centrifugation. Cell pellets were resuspended in 400 μl of hypotonic PI buffer, containing 40 mM Tri-sodium citrate (Merck), 0.3% Triton X-100 (Sigma-Aldrich) and 50 μg/ml Propidium iodide (Sigma-Aldrich) in PBS, and incubated at room temperature for 10 minutes in dark. The flow cytometric analysis of PI stained nuclei was performed and the recorded data was analyzed using a FACScan flow cytometer and software (Becton Dickinson) respectively.
In experiments using pan-caspase inhibitor, cells were kept in growth media containing 30 μM Z-VAD-FMK starting from 18 hrs after transfection till the PI staining. For treatment with PP2A activators FTY720, Sodium Selenate and Xylulose-5-phosphate, cells were kept in respective drugs throughout the experiment starting from 24 hrs after transfection. PP2A inhibitor, Okadaic acid, treatment was given for 24 hrs after 24 hrs of transfection.
The T98G cells transfected with siRNA for 48 hrs were given drug treatments for 24 hrs and were subsequently lysed, and their nuclei were stained using hypotonic propidium iodide buffer. The lysates were analysed for changes in the sub-G0/G1 fraction of fragmented nuclei by flow cytometry (FACS) (FIG. 1B). Condensation and fragmentation of nucleus is a key biochemical feature of apoptosis and sub-G0/G1 analysis has been widely used for detection of apoptosis (FEBS Lett., 1986, 194(2):347-50; Cytometry, 1991, 12(4):323-329; Nature Protocols, 2006, 1:1458-1461).

As for `O=C1NC(=O)c2c1c1c3ccccc3[nH]c1c1[nH]c3ccccc3c21` [Arcyriaflavin A, 12,13-Dihydro-5H-indolo[2,3-a] pyrrolo[3,4-c] carbazole-5,7(6H)-dione], the “Potentiation % (apoptotic nuclear fragmentation)” value (“Potentiation %” for short) (5 μM drug) was 5-10%.

For `C[C@]12O[C@H](C[C@]1(O)CO)n1c3ccccc3c3c4c(c5c6ccccc6n2c5c31)CNC4=O` [CEP-701, (9S,10S,12R)-2,3,9,10,11,12-Hexahydro-10-hydroxy-10-(hydroxymethyl)-9-methyl-9,12-epoxy-1H-diindolo[1,2,3-fg:3′,2′,1′-kl] pyrrolo[3,4-i][1, 6]benzodiazocin-1-one], the “Potentiation %” value by setting is: (50 nM drug) 2-5%; (5 μM drug) 75-80%. Besides, for the setting “T98G”, the “level of apoptosis in PME-1 depleted cells” value (from here on “level of apoptosis”) is listed as “levels even higher than STS itself”.

Consider `Cn1cc(C2=C(c3cn(C4CCN(Cc5ccccn5)CC4)c4ccccc34)C(=O)NC2=O)c2ccccc21` [Enzastaurin, 3-(1-Methyl-1H-indol-3-yl)-4-(1-(1-(2-pyridinylmethyl)-4-piperidinyl)-1H-indol-3-yl)-1H-pyrrole-2,5-dione], for which the “Potentiation %” value (5 μM drug) is on record as 15-20%.

As to `CCCCCCCCc1ccc(CCC(N)(CO)CO)cc1` [FTY720], the “sensitization to STS mediated apoptosis” value (siRNA or chemical PP2A activator followed by STS 24 hrs, T98G) is on record as “None of these chemical PP2A activators were able to sensitize”.

`Cn1c2ccccc2c2c3c(c4c5ccccc5n(CCC#N)c4c21)CNC3=O` [GÖ-6976, 12-(2-Cyanoethyl)-6,7,12,13-tetrahydro-13-methyl-5-oxo-5H-indolo[2,3-a]pyrrolo[3,4-c]carbazole]: the “Potentiation %” value (5 μM drug) was 15-20%.

On to `CC1CNCCN1S(=O)(=O)c1cccc2cnccc12` (stereo not shown) [H7], for which the “level of apoptosis” value (T98G) was “moderate levels of apoptosis”.

In the case of `O=C1NCc2c1c1c3ccccc3[nH]c1c1[nH]c3ccccc3c21` [K252c, 6,7,12,13-Tetrahydro-5H-indolo[2,3-a]pyrrolo[3,4-c] carbazol-5-one], the “Potentiation %” value (5 μM drug) is 15-20%.

Turning to `C=C1[C@@H](O)[C@@H]2O[C@]3(CC[C@H](/C=C/[C@@H](C)[C@@H]4CC(C)=C[C@@]5(O[C@H](C[C@@](C)(O)C(=O)O)CC[C@H]5O)O4)O3)CC[C@H]2O[C@@H]1[C@@H](O)C[C@H](C)[C@H]1O[C@@]2(CCCCO2)CC[C@H]1C` [OA, okadaic acid], under “agent added to, or siRNA co-transfected with, PME-1 siRNA plus STS, T98G”, the “reversal of PME-1 siRNA and STS mediated apoptosis” value is “sufficient to rescue cells”.

Take `Cn1cc(C2=C(c3cn(CCCSC(=N)N)c4ccccc34)C(=O)NC2=O)c2ccccc21` [RO-31-8220]: the “Potentiation %” value (5 μM drug) is listed as 5-10%. Also, the “level of apoptosis” value (T98G) is “not active”.

For `COC1C(CO)OC(n2c3c(Cl)cccc3c3c4c(c5c6cccc(Cl)c6[nH]c5c32)C(=O)NC4=O)C(O)C1O` (stereo not drawn) [Rebeccamycin, 5h-indolo(2,3-a)pyrrolo(3,4-c)carbazole-5,7(6h)-dione,1,11-dichloro-12,13-dihy;dro-12-(4-o-methyl-beta-d-glucopyranosyl)], the “Potentiation %” value (5 μM drug) is 5-10%.

Turning to `O=C1NC(=O)c2c1c1c3ccccc3n3c1c1c2c2ccccc2n1C1CCC3O1` [SB-218078, 9,10,11,12-Tetrahydro-9,12-epoxy-1H-diindolo [1,2,3-fg:3′,2′,1′-kl] pyrrolo[3,4-i][1,6] benzodiazocine-1,3(2H)-dione], the “Potentiation %” value is, setting by setting: (50 nM drug) 2-5%; (5 μM drug) 25-30%. In addition, the “level of apoptosis” value (T98G) is “moderate levels of apoptosis”.

For the compound `CN[C@@H]1C[C@H]2O[C@@](C)([C@@H]1OC)n1c3ccccc3c3c4c(c5c6ccccc6n2c5c31)C(=O)N[C@@H]4O` [UCN-01, (9S)-2,3,10,11,12,13-Hexahydro-3α-hydroxy-10α-methoxy-9-methyl-11α-methyl amino-9β,13β-epoxy-1H,9H-diindolo [1,2,3-gh:3′,2′,1′-lm] pyrrolo[3,4-j][1,7] benzodiazonin-1-one], the “Potentiation %” value (50 nM drug) is recorded as 5-10% and the “Potentiation %” value (5 μM drug) is on record as 80-90%. For the same compound, where the note is “T98G”, the “level of apoptosis” value was “levels even higher than STS itself”.
